In brackets after ≈: the same amount, converted by molar mass.
Tests used:
[1] = system: strain IV2570533 - Escherichia coli cattle (resistant); assay: MIC of antibiotics in the presence and absence of test compound, veterinary strains; format: cell-based; details: compound at the Concentration (μM) (0.896-12.6)
Description: (§1) For each strain and each antibiotic, the MICs were determined in the presence and in the absence of one test compound.

[2] = system: strain IV2570060 - Escherichia coli cattle (sensible); assay: as above; format: cell-based; details: compound at the Concentration (μM) (4-50)
Description: as §1

[3] = system: Enterobacter aerogenes MDR Ea289; assay: MIC of antibiotics ± test compound (MIC ratio), micro-broth dilution; format: cell-based; details: for MIC ratio Chloramphenicol E. aerogenes Ea289 / MIC ratio Doxycycline E. aerogenes Ea289 / MIC ratio Nalidixic acid E. aerogenes Ea289: Example 4
In short: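 Chloramphenicol MICs against MDR Enterobacter aerogenes Ea289 were determined by broth microdilution in MH broth (two-fold serial dilutions), alone and with test compound at MIC/4. MIC ratio = MIC of antibiotic alone ÷ MIC with compound. Each determination was repeated in at least three independent experiments.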

CHO cells = assay: Toxicity on CHO cultured cells; format: cell-based; details: Cricetulus griseus; killing of 50% of the CHO cells after 24 hours of incubation
Description: The toxicity of each compound was determined on CHO cultured cells. Incubation of CHO cells was performed with serial dilution of compounds. The compounds are either solubilized in DMSO or in PBS. The IC50 corresponds to the concentration of compounds leading to a killing of 50% of the CHO cells after 24 hours of incubation.

AB1 = assay: MIC of antibiotics ± test compound (MIC ratio), micro-broth dilution; format: cell-based, Acinetobacter baumannii; details: compound at MIC/4
Description: (§2) Susceptibilities to antibiotics and compounds were determined in microplates by broth dilution method, as previously described. Minimal Inhibitory Concentrations (MICs) were determined with an inoculum of 10^6 CFU in 200 μL of MH broth containing two-fold serial dilutions of each drug. […] All MIC determinations were repeated at least three times in independent experiments.
(§3) The MICs of chloramphenicol±test compounds (MIC/4) were determined by the micro-broth dilution method (9). All MIC determinations were repeated at least three times in independent experiments. The MIC ratio corresponds to the ratio of the MIC of an antibiotic alone to the MIC of the same antibiotic in the presence of the tested compound (at MIC/4).
(§4) For reminder, the MIC ratio corresponds to the ratio of the MIC of the assessed antibiotic alone to the MIC of the same antibiotic in the presence of the tested compound (at MIC/4).

ATCC 19606 = assay: as above; format: cell-based, Acinetobacter baumannii; details: compound at MIC/4
Description: as §2, §3, §4

CM64 = assay: as above; format: cell-based, Enterobacter aerogenes; details: compound at MIC/4; Example 4
Description: as §2, §3, §4

Ea27 = assay: as above; format: cell-based, Enterobacter aerogenes; details: compound at MIC/4; Example 4
Description: as §2, §3, §4

ATCC 13048 = assay: as above; format: cell-based, Enterobacter aerogenes; details: compound at MIC/4; Example 4
Description: as §2, §3, §4

[4] = system: Pseudomonas and Actinebacter strains; assay: MIC ratio, several strains; format: cell-based
Description: as §4

[5] = system: Enterobacter, Salmonella and Escherichia strains; assay: MIC ratio, several strains; format: cell-based
Description: as §4

BN10055ΔacrB = assay: MIC by broth dilution (intrinsic MIC); format: cell-based, Salmonella enterica; details: Salmonella BN10055ΔacrB
Description: as §2

BN10055 = assay: MIC by broth dilution (intrinsic MIC); format: cell-based, Salmonella enterica; details: Salmonella enterica; Salmonella BN10055
Description: as §2

[6] = system: strain IV2571418 - Escherichia coli pig (resistant); assay: MIC of antibiotics in the presence and absence of test compound, veterinary strains; format: cell-based; set-up: MIC for strain IV2571418, Doxycycline in the presence of test compound: unit not given beside the values; details: compound at the Concentration (μM) (4-50)
Description: as §1

PA124 = assay: MIC of antibiotics ± test compound (MIC ratio), micro-broth dilution; format: cell-based, Pseudomonas aeruginosa; details: compound at MIC/4
Description: as §2, §3, §4

PAO1 = assay: as above; format: cell-based, Pseudomonas aeruginosa; details: compound at MIC/4
Description: as §2, §3, §4

AG100 = assay: as above; format: cell-based, Escherichia coli; details: compound at MIC/4; Example 4
Description: as §2, §3, §4

Ea289ΔacrB (Ea294) = assay: as above; format: cell-based, Enterobacter aerogenes; details: compound at MIC/4; for MIC ratio Chloramphenicol E. aerogenes Ea294 / MIC ratio Doxycycline E. aerogenes Ea294 / MIC ratio Nalidixic acid E. aerogenes Ea294: Example 4
Description: The Enterobacter aerogenes Ea289 strain is a Kans derivative of the MDR clinical isolate Ea27, the acrB mutant, EaEP294, was constructed from Ea289. Multidrug-resistant Salmonella enterica serovar Typhimurium DT104 strains (BN10055) was isolated from cattle in France, the isogenic acrB derivative mutant, BN10055ΔacrB, was constructed from BN10055. Strains were maintained at −80° C. in 25% (v/v) glycerol for cryoprotection. Bacteria were routinely grown in Mueller-Hinton (MH) broth at 37° C.
as §2
[…] All MIC determinations were repeated at least three times in independent experiments. The MIC ratio corresponds to the ratio of the MIC of an antibiotic alone to the MIC of the same antibiotic in the presence of the tested compound (at MIC/4).
as §4

[7] = chloramphenicol, compound at MIC/4, Set 2

CC(C)=CCCC(C)=CCNCCCN(CCCN)CCCN (racemic) [Compound 11, {3-[Bis-(3-amino-propyl)-amino]-propyl}-(3,7-dimethyl-octa-2,6-dienyl)-amine]
MIC for strain IV2570533, Doxycycline in the presence of test compound [1]: 1
MIC for strain IV2570533, Tylosine in the presence of test compound [1]: 4
MIC for strain IV2570060, Doxycycline in the presence of test compound [2]: 0.0625
MIC for strain IV2570060, Tylosine in the presence of test compound [2]: 4
Effective concentration (mM) for a MIC ratio of chloramphenicol ≥ 8 on Ea289 ([3]; chloramphenicol): 0.0078 mM
efficient concentration, times lower than the control PAβN ([3]; chloramphenicol MIC ratio of 8 on Ea289): about 4.9 times
activity, effective concentration compared with PAβN to reach a MIC ratio of 8 ([3]; chloramphenicol on Ea289): strong activity
MIC ratio (*) on Ea289 Chl ([3]; chloramphenicol, compound at MIC/4, Set 1): 16
MIC ratio (*) on Ea289 Chl [3, 7]: 8
MIC ratio Chloramphenicol E. aerogenes Ea289 ([3]; compound at MIC/4): 8
MIC ratio Doxycycline E. aerogenes Ea289 ([3]; compound at MIC/4): 32
MIC ratio Nalidixic acid E. aerogenes Ea289 ([3]; compound at MIC/4): 8
MIC ratio(*) on Ea289 Ery ([3]; erythromycin, compound at MIC/4, Set 1): 32
MIC ratio (*) on Ea289 Nal ([3]; nalidixic acid, compound at MIC/4, Set 1): 8
IC50 (CHO cells): 0.282 mM
MIC ratio Cefepime Acinetobacter baumannii AB1 (AB1): 1
MIC ratio Chloramphénicol Acinetobacter baumannii AB1 (AB1): 16
MIC ratio Doxycycline Acinetobacter baumannii AB1 (AB1): 2
MIC ratio Tetracycline Acinetobacter baumannii AB1 (AB1): 2
MIC ratio Cefepime Acinetobacter baumannii ATCC19606 (ATCC 19606): 4-8
MIC ratio Chloramphénicol Acinetobacter baumannii ATCC19606 (ATCC 19606): 8
MIC ratio Doxycycline Acinetobacter baumannii ATCC19606 (ATCC 19606): 1
MIC ratio Tetracycline Acinetobacter baumannii ATCC19606 (ATCC 19606): 8
MIC ratio Chloramphenicol E. aerogenes CM64 (CM64): 16
MIC ratio Oxacillin E. aerogenes CM64 (CM64): >8
MIC ratio Chloramphenicol E. aerogenes Ea27 (Ea27): >4
MIC ratio Doxycycline E. aerogenes Ea27 (Ea27): 32
MIC ratio Oxacillin E. aerogenes Ea27 (Ea27): 1
MIC ratio Chloramphenicol E. aerogenes ATCC13048 (ATCC 13048): >32
MIC ratio Doxycycline E. aerogenes ATCC13048 (ATCC 13048): 64
MIC ratio Oxacillin E. aerogenes ATCC13048 (ATCC 13048): >8
sensitivity of strains to chloramphenicol ([4]; Pseudomonas and Actinebacter strains): greatly increased the sensitivity
sensitivity to tetracycline, Pseudomonas and Actinebacter strains ([4]; tetracycline): increased the sensitivity
sensitivity for chloramphenicol, nalidixic acid, doxycycline and oxacillin ([5]; Enterobacter Salmonella and Escherichia strains): increased the sensitivity
sensitivity to tetracycline, Enterobacter, Salmonella and E. coli strains ([5]; tetracycline, data not shown): such an increase was not observed
intrinsic MIC, BN10055ΔacrB (BN10055ΔacrB): 15 µM
MIC (BN10055): 31 µM (≈ 10.1 µg/mL)
MIC for strain IV2571418, Doxycycline in the presence of test compound [6]: 2
MIC for strain IV2571418, Tylosine in the presence of test compound [6]: 4
MIC ratio Cefepime Pseudomonas aeruginosa PA124 (PA124): 1
MIC ratio Chloramphénicol Pseudomonas aeruginosa PA124 (PA124): 128
MIC ratio Doxycycline Pseudomonas aeruginosa PA124 (PA124): >32
MIC ratio Tetracycline Pseudomonas aeruginosa PA124 (PA124): 8
MIC ratio Cefepime Pseudomonas aeruginosa PAO1 (PAO1): 1
MIC ratio Doxycycline Pseudomonas aeruginosa PAO1 (PAO1): >16
MIC ratio Chloramphenicol E. Coli AG100 (AG100): 16
MIC ratio Doxycycline E. Coli AG100 (AG100): >32
MIC ratio Oxacillin E. Coli AG100 (AG100): 16
MIC ratio(*) on Ea289ΔacrB Chl (Ea289ΔacrB (Ea294); chloramphenicol, Set 1): 16
MIC ratio Chloramphenicol E. aerogenes Ea294 (Ea289ΔacrB (Ea294)): 16
MIC ratio Doxycycline E. aerogenes Ea294 (Ea289ΔacrB (Ea294)): 4
MIC ratio Nalidixic acid E. aerogenes Ea294 (Ea289ΔacrB (Ea294)): 8
MIC ratio(*) on Ea289ΔacrB Ery (Ea289ΔacrB (Ea294); erythromycin, Set 1): 16
MIC ratio(*) on Ea289ΔacrB Nal (Ea289ΔacrB (Ea294); nalidixic acid, Set 1): 8

CC(C)=CCC/C(C)=C/CC/C(C)=C/CNCCCN(C)CCCN [Compound 14, {3-[(3-Amino-propyl)-methyl-amino]-propyl}-((2E,6E)-3,7,11-trimethyl-dodeca-2,6,10-trienyl)-amine]
MIC for strain IV2570533, Doxycycline in the presence of test compound [1]: 1
MIC for strain IV2570533, Tylosine in the presence of test compound [1]: 8
MIC for strain IV2570060, Doxycycline in the presence of test compound [2]: 0.0625
MIC for strain IV2570060, Tylosine in the presence of test compound [2]: 8
MIC ratio (*) on Ea289 Chl [3, 7]: 8
MIC ratio Chloramphenicol E. aerogenes Ea289 ([3]; compound at MIC/4): 8
MIC ratio Doxycycline E. aerogenes Ea289 ([3]; compound at MIC/4): 64
MIC ratio Nalidixic acid E. aerogenes Ea289 ([3]; compound at MIC/4): 32
MIC ratio Cefepime Acinetobacter baumannii AB1 (AB1): 1
MIC ratio Chloramphénicol Acinetobacter baumannii AB1 (AB1): 16
MIC ratio Doxycycline Acinetobacter baumannii AB1 (AB1): 2
MIC ratio Tetracycline Acinetobacter baumannii AB1 (AB1): 4
MIC ratio Cefepime Acinetobacter baumannii ATCC19606 (ATCC 19606): 4-8
MIC ratio Chloramphénicol Acinetobacter baumannii ATCC19606 (ATCC 19606): 8
MIC ratio Doxycycline Acinetobacter baumannii ATCC19606 (ATCC 19606): 1
MIC ratio Tetracycline Acinetobacter baumannii ATCC19606 (ATCC 19606): 4
MIC ratio Chloramphenicol E. aerogenes CM64 (CM64): 16
MIC ratio Oxacillin E. aerogenes CM64 (CM64): >8
MIC ratio Chloramphenicol E. aerogenes Ea27 (Ea27): >4
MIC ratio Doxycycline E. aerogenes Ea27 (Ea27): 32
MIC ratio Oxacillin E. aerogenes Ea27 (Ea27): 1
MIC ratio Chloramphenicol E. aerogenes ATCC13048 (ATCC 13048): >32
MIC ratio Doxycycline E. aerogenes ATCC13048 (ATCC 13048): 64
MIC ratio Oxacillin E. aerogenes ATCC13048 (ATCC 13048): >8
intrinsic MIC, BN10055ΔacrB (BN10055ΔacrB): 15 µM
MIC (BN10055): 31 µM (≈ 10.8 µg/mL)
MIC for strain IV2571418, Doxycycline in the presence of test compound [6]: 2
MIC for strain IV2571418, Tylosine in the presence of test compound [6]: 4
MIC ratio Cefepime Pseudomonas aeruginosa PA124 (PA124): 1
MIC ratio Chloramphénicol Pseudomonas aeruginosa PA124 (PA124): 128
MIC ratio Doxycycline Pseudomonas aeruginosa PA124 (PA124): >32
MIC ratio Tetracycline Pseudomonas aeruginosa PA124 (PA124): 8
MIC ratio Cefepime Pseudomonas aeruginosa PAO1 (PAO1): 1
MIC ratio Doxycycline Pseudomonas aeruginosa PAO1 (PAO1): >16
MIC ratio Chloramphenicol E. Coli AG100 (AG100): 16
MIC ratio Doxycycline E. Coli AG100 (AG100): >32
MIC ratio Oxacillin E. Coli AG100 (AG100): 16
MIC ratio Chloramphenicol E. aerogenes Ea294 (Ea289ΔacrB (Ea294)): 2
MIC ratio Doxycycline E. aerogenes Ea294 (Ea289ΔacrB (Ea294)): 4
MIC ratio Nalidixic acid E. aerogenes Ea294 (Ea289ΔacrB (Ea294)): 4

From patent US10562842B2, “Use of polyaminoisoprenyl derivatives in antibiotic or antiseptic treatment” (UNIVERSITE D'AIX-MARSEILLE, priority 2011, dated 2020)
